# Reference: patent US20170107212A1, “NOVEL COMPOUNDS” (Bayer Pharma Aktiengesellschaft, priority 2014, published 2017)
# Where a name gives a salt, the structure may show the parent alone.
# How the values were obtained:
# [1] = system: constitutive active colorectal cancer cell (CRC) Wnt pathway, HCT116 TOPFlash; test: Cellular reporter assay, HCT116 Super TopFlash (constitutive active Wnt pathway), luciferase expression; type: cell-based; details: Homo sapiens, HCT116 Super TopFlash reporter cells, 36 hours incubation, dilution series 50 μM to 15 nM
# Protocol: In order to discover and characterize small molecules which inhibit the constitutive active colorectal cancer cell (CRC) Wnt pathway, a cellular reporter assay was employed. The corresponding assay cell was generated by transfection of the colorectal cancer cell line HCT116 (ATCC, #CCL-247) with the Super TopFlash vector (Morin, Science 275, 1997, 1787-1790; Molenaar et al., Cell 86 (3), 1996, 391-399). The HCT116 cell line is cultivated at 37° C. and 5% CO2 in DMEM/F-12 (Life Technologies, #11320-074), supplemented with 2 mM glutamine, 20 mM HEPES, 1.4 mM pyruvate, 0.15% Na-bicarbonate and 10% foetal bovine serum (GIBCO, #10270), this cancer cell line is pathophysiological relevant since it carries a deletion of position S45 in the β-catenin gene, leading to constitutive active Wnt signaling. Stable transfectants were generated by cotransfection with pcDNA3 and selection of stable transfected cells with 1 mg/ml G418.
# (§1) In preparation of the assay, the two cell lines were plated 24 hours before at 10000 cells per well of a 384 micro titre plate (MTP) in 30 μL growth medium. Selective inhibitory activity for small molecules on the mutated Wnt pathway was determined after parallel incubation of both (TOP and FOP) HCT116 reporter cell lines with a compound dilution series from 50 μM to 15 nM in steps of 3.16-fold dilutions in CAFTY buffer (130 mM NaCl, 5 mM KCl, 20 mM HEPES, 1 mM MgCl2, 5 mM NaHCO3, pH 7.4) containing 2 mM Ca^2+ and 0.01% BSA. The compounds were thereby serially prediluted in 100% DMSO and thereafter in addition 50 fold into the CAFTY compound dilution buffer (described above). From this dilution 10 μL were added to the cells in 30 μL growth medium and incubated for 36 hours at 37° C. and 5% CO2. Thereafter luciferase assay buffer (1:1 mixture of luciferase substrate buffer (20 mM Tricine, 2.67 mM MgSO4, 0.1 mM EDTA, 4 mM DTT, 270 μM Coenzyme A, 470 μM Luciferin, 530 μM ATP, ph adjusted to pH 7.8 with a sufficient volume of 5M NaOH) and Triton buffer (30 mL Triton X-100, 115 mL glycerol, 308 mg Dithiothreitol, 4.45 g Na2HPO4.2H2O, 3.03 g TRIS HCl, ad 1 l H20, pH 7.8) was added as equal volume to the compound solution on the cells to determine luciferase expression as a measure of Wnt signaling activity in a luminometer.
# HCT116 FOPFlash = test: Control reporter assay, HCT116 FOP control vector (non-functional TCF elements), luciferase expression; type: cell-based; details: Homo sapiens, HCT116 FOP control reporter cells, 36 hours incubation, dilution series 50 μM to 15 nM
# Protocol: In a parallel approach, HCT116 cells were cotransfected with the FOP control vector and pcDNA3. The FOP vector is identical to the TOP construct, but it contains instead of functional TCF elements a randomized, non-functional sequence. For this transfection a stable transfected cell line was generated as well.
# as §1
Compound,IC50 ([1]; HCT-116) [nM],IC50 (HCT116 FOPFlash; HCT-116) [nM],"IC50 ([1]; HCT-116, 36 h) [nM]","IC50 (HCT116 FOPFlash; HCT-116, 36 h) [nM]"
"CN1CCN(CC(=O)Nc2cc(C(=O)Nc3nnc(-c4nccs4)s3)ccc2OC(F)(F)F)CC1 [Example 45, 1-methyl-4-(2-oxo-2-{[5-{[5-(1,3-thiazol-2-yl)-1,3,4-thiadiazol-2-yl]carbamoyl}-2-(trifluoromethoxy)phenyl]amino}ethyl)piperazin-1-ium hexafluorophosphate]",1480,45000,,
"CN1CCN(CC(=O)Nc2cc(C(=O)Nc3ccc(-c4cncnc4)cn3)ccc2OC(F)(F)F)CC1 [Example 46, 3-{[(4-methylpiperazin-1-yl)acetyl]amino}-N-[5-(pyrimidin-5-yl)pyridin-2-yl]-4-(trifluoromethoxy)benzamide]",,,18.3,≥ 50000
"O=C(CN1CCOCC1)Nc1cc(C(=O)Nc2nnc(-c3cncc(Cl)c3)s2)ccc1OC(F)(F)F [Example 47, N-[5-(5-chloropyridin-3-yl)-1,3,4-thiadiazol-2-yl]-3-[(morpholin-4-ylacetyl)amino]-4-(trifluoromethoxy)benzamide]",,,585,≥ 50000
"Cc1cncc(-c2nnc(NC(=O)c3ccc(OC(F)(F)F)c(NC(=O)CN4CCOCC4)c3)s2)n1 [Example 48, N-[5-(6-methylpyrazin-2-yl)-1,3,4-thiadiazol-2-yl]-3-[(morpholin-4-ylacetyl)amino]-4-(trifluoromethoxy)benzamide]",,,663,≥ 50000
"Nc1ccc(-c2nnc(NC(=O)c3ccc(OC(F)(F)F)c(NC(=O)C4(N5CCOCC5)CC4)c3)s2)cn1 [Example 49, N-[5-(6-aminopyridin-3-yl)-1,3,4-thiadiazol-2-yl]-3-({[1-(morpholin-4-yl)cyclopropyl]carbonyl}amino)-4-(trifluoromethoxy)benzamide]",,,310,≥ 50000
"CN1CCN(CC(=O)Nc2cc(C(=O)Nc3nnc(-c4cccnc4)s3)ccc2OCC(F)(F)F)CC1 [Example 50, 3-{[(4-methylpiperazin-1-yl)acetyl]amino}-N-[5-(pyridin-3-yl)-1,3,4-thiadiazol-2-yl]-4-(2,2,2-trifluoroethoxy)benzamide hydrochloride (1:1)]",,,293,20500
CN1CCN(CC(=O)Nc2cc(C(=O)Nc3cnc(-c4cccnc4F)cn3)ccc2OC(F)(F)F)CC1 [Example 51],,,79,≥ 50000
"CN1CCN(CC(=O)Nc2cc(C(=O)Nc3cnc(-c4ccncc4)cn3)ccc2OC(F)(F)F)CC1 [Example 52, 3-{[(4-methylpiperazin-1-yl)acetyl]amino}-N-[5-(pyridin-4-yl)pyrazin-2-yl]-4-(trifluoromethoxy)benzamide]",,,64,≥ 50000
"CN1CCN(CC(=O)Nc2cc(C(=O)Nc3cnc(-c4ccnc(N)c4)cn3)ccc2OC(F)(F)F)CC1 [Example 53, N-[5-(2-aminopyridin-4-yl)pyrazin-2-yl]-3-{[(4-methylpiperazin-1-yl)acetyl]amino}-4-(trifluoromethoxy)benzamide]",,,2000,≥ 50000
"CN1CCN(CC(=O)Nc2cc(C(=O)Nc3cnc(-c4ccc(N)nc4)cn3)ccc2OC(F)(F)F)CC1 [Example 54, N-[5-(6-aminopyridin-3-yl)pyrazin-2-yl]-3-{[(4-methylpiperazin-1-yl)acetyl]amino}-4-(trifluoromethoxy)benzamide]",,,35.5,≥ 50000
"Nc1ccc(-c2nnc(NC(=O)c3ccc(OC(F)(F)F)c(NC(=O)CN4CCOCC4)c3)s2)cn1 [Example 55, N-[5-(6-aminopyridin-3-yl)-1,3,4-thiadiazol-2-yl]-3-[(morpholin-4-ylacetyl)amino]-4-(trifluoromethoxy)benzamide]",,,240,≥ 50000
"Cc1cncc(-c2nnc(NC(=O)c3ccc(OC(F)(F)F)c(NC(=O)CN4CCOCC4)c3)s2)c1 [Example 56, N-[5-(5-methylpyridin-3-yl)-1,3,4-thiadiazol-2-yl]-3-[(morpholin-4-ylacetyl)amino]-4-(trifluoromethoxy)benzamide]",,,470,≥ 50000
"CN1CCN(CC(=O)Nc2cc(C(=O)Nc3nnc(-c4cncc(C(F)(F)F)c4)s3)ccc2OC(F)(F)F)CC1 [Example 57, 3-{[(4-methylpiperazin-1-yl)acetyl]amino}-4-(trifluoromethoxy)-N-{5-[5-(trifluoromethyl)pyridin-3-yl]-1,3,4-thiadiazol-2-yl}benzamide]",,,240,≥ 50000
"O=C(CN1CCOCC1)Nc1cc(C(=O)Nc2nnc(-c3cncc(C(F)(F)F)c3)s2)ccc1OC(F)(F)F [Example 58, 3-[(morpholin-4-ylacetyl)amino]-4-(trifluoromethoxy)-N-{5-[5-(trifluoromethyl)pyridin-3-yl]-1,3,4-thiadiazol-2-yl}benzamide]",,,7390,27300
"CN1CCN(CC(=O)Nc2cc(C(=O)Nc3cnc(-c4cnc(N)cn4)cn3)ccc2OC(F)(F)F)CC1 [Example 59, N-(5′-amino-2,2′-bipyrazin-5-yl)-3-{[(4-methylpiperazin-1-yl)acetyl]amino}-4-(trifluoromethoxy)benzamide]",,,4100,≥ 50000
"CN1CCN(CC(=O)Nc2cc(C(=O)Nc3nnc(-c4cnccn4)s3)ccc2OC2CC2)CC1 [Example 60, 4-(cyclopropyloxy)-3-{[(4-methylpiperazin-1-yl)acetyl]amino}-N-[5-(pyrazin-2-yl)-1,3,4-thiadiazol-2-yl]benzamide]",,,4400,≥ 50000
"Cc1ccncc1-c1nnc(NC(=O)c2ccc(OCC(F)(F)F)c(NC(=O)CN3CCN(C)CC3)c2)s1 [Example 61, 3-{[(4-methylpiperazin-1-yl)acetyl]amino}-N-[5-(4-methylpyridin-3-yl)-1,3,4-thiadiazol-2-yl]-4-(2,2,2-trifluoroethoxy)benzamide]",,,340,≥ 50000
"Cc1ccnc(-c2nnc(NC(=O)c3ccc(OC(F)(F)F)c(NC(=O)CN4CCN(C)CC4)c3)s2)c1 [Example 62, 3-{[(4-methylpiperazin-1-yl)acetyl]amino}-N-[5-(4-methylpyridin-2-yl)-1,3,4-thiadiazol-2-yl]-4-(trifluoromethoxy)benzamide]",,,1010,8550
"Cc1csc(-c2nnc(NC(=O)c3ccc(OC(F)(F)F)c(NC(=O)CN4CCN(C)CC4)c3)s2)n1 [Example 63, 3-{[(4-methylpiperazin-1-yl)acetyl]amino}-N-[5-(4-methyl-1,3-thiazol-2-yl)-1,3,4-thiadiazol-2-yl]-4-(trifluoromethoxy)benzamide]",,,1080,43500
"CN1CCN(CC(=O)Nc2cc(C(=O)Nc3nnc(-c4cscn4)s3)ccc2OC(F)(F)F)CC1 [Example 64, 3-{[(4-methylpiperazin-1-yl)acetyl]amino}-N-[5-(1,3-thiazol-4-yl)-1,3,4-thiadiazol-2-yl]-4-(trifluoromethoxy)benzamide]",,,1110,46000
"CN1CCN(CC(=O)Nc2cc(C(=O)Nc3nnc(-c4cnc(N)s4)s3)ccc2OC(F)(F)F)CC1 [Example 66, N-[5-(2-amino-1,3-thiazol-5-yl)-1,3,4-thiadiazol-2-yl]-3-{[(4-methylpiperazin-1-yl)acetyl]amino}-4-(trifluoromethoxy)benzamide]",,,1470,≥ 50000
"O=C(CN1CCOCC1)Nc1cc(C(=O)Nc2nnc(-c3cscn3)s2)ccc1OC(F)(F)F [Example 67, 3-[(morpholin-4-ylacetyl)amino]-N-[5-(1,3-thiazol-4-yl)-1,3,4-thiadiazol-2-yl]-4-(trifluoromethoxy)benzamide]",,,1650,≥ 50000
"CN1CCN(CC(=O)Nc2cc(C(=O)Nc3nnc(-c4cncs4)s3)ccc2OC(F)(F)F)CC1 [Example 68, 3-{[(4-methylpiperazin-1-yl)acetyl]amino}-N-[5-(1,3-thiazol-5-yl)-1,3,4-thiadiazol-2-yl]-4-(trifluoromethoxy)benzamide]",,,1860,≥ 50000
